This note sets out measurements from ChEMBL document CHEMBL5346977, “Discovery of Novel d-(+)-Biotin-Conjugated Resorcinol Dibenzyl Ether-Based PD-L1 Inhibitors for Targeted Cancer Immunotherapy” (J Med Chem, 2023).

Active and inactive are the calls of the source. No cut-off for these calls is given here.

Data set [1] concerns the target T1, Programmed cell death protein 1/Programmed cell death 1 ligand 1 (Homo sapiens) (UniProt Q15116+Q9NZQ7). Briefly: Inhibition of GST-tagged PD-1 (unknown origin)/His-tagged PD-L1 (unknown origin) interaction at 100 nM by HTRF binding assay relative to control. It counts as protein-complex assay. Background: In TR-FRET formats the signal depends on donor and acceptor labels being close together.

The target in data set [2] is T1, Programmed cell death protein 1/Programmed cell death 1 ligand 1 (Homo sapiens). Briefly: Inhibition of GST-tagged PD-1 (unknown origin)/His-tagged PD-L1 (unknown origin) interaction at 10 nM by HTRF binding assay relative to control. It counts as protein-complex assay.
The target in data set [3] is T2, Programmed cell death protein 1/Programmed cell death 1 ligand 1 (Homo sapiens, UniProt Q9NZQ7). Put plainly: Inhibition of GST-tagged PD-1 (unknown origin)/His-tagged PD-L1 (unknown origin) interaction by HTRF binding assay relative to control. The format is protein-complex assay.
T2 sequence (Q15116 whole entry): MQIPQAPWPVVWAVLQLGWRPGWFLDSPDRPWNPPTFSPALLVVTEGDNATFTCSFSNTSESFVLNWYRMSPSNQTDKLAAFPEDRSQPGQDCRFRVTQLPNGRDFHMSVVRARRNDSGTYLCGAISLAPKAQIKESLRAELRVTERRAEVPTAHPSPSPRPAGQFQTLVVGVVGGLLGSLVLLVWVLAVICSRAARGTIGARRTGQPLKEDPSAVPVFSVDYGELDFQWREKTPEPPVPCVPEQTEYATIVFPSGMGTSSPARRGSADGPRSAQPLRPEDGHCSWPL
T2 sequence (Q9NZQ7 whole entry): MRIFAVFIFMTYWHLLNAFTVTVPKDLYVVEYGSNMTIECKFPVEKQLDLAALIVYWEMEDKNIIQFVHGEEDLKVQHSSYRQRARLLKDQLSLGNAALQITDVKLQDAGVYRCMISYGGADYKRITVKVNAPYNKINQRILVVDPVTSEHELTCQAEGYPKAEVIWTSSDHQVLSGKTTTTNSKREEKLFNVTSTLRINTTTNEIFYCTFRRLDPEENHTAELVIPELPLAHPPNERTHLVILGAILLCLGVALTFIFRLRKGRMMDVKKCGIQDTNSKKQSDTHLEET
The nature of data set [4]: AUC (0 to t) in Sprague-Dawley rat at 1 mg/kg, iv administered as single dose and measured after 48 hrs by HPLC-MS/MS analysis. The format is ADME, organism-based. As to conditions: in vivo. Details: dose 1 mg/kg, time 48 hrs, route iv.
Data set [5] addresses T2, Programmed cell death protein 1/Programmed cell death 1 ligand 1. Put plainly: Inhibition of interaction of PD-1 (unknown origin) expressed in Jurkat T cells carrying luciferase reporter under the control of NFAT promoter/PD-L1 (unknown origin) expressed in CHO cells co-expressing TCR ligand and T-cell surrogate pretreated with CHO cells for 0.5 hrs followed by Jurkat T cell addition and measured after 5 hrs by luminescence based analysis. In general terms: A reporter such as luciferase makes a cellular process visible.

Data set [6] is described as follows: MRT (0 to t) in Sprague-Dawley rat at 1 mg/kg, iv administered as single dose and measured after 48 hrs by HPLC-MS/MS analysis. The format is ADME, organism-based. As to conditions: in vivo.
Data set [7] can be described thus: MRT (0 to infinity) in Sprague-Dawley rat at 1 mg/kg, iv administered as single dose and measured after 48 hrs by HPLC-MS/MS analysis. It counts as ADME, organism-based. As to conditions: in vivo.
Data set [8] concerns B16-F10. Briefly: Antitumor immunity against mouse B16-F10 cells implanted in allogenic BALB/c mouse assessed as increase in CD3+ T cells at 50 mg/kg, ip by flow cytometric analysis (reference value: 2.51%). The format is functional. For orientation: In flow cytometry, cells or beads pass a laser one at a time.
Data set [9] in a line: Half-life in Sprague-Dawley rat at 1 mg/kg, iv administered as single dose and measured after 48 hrs by HPLC-MS/MS analysis. The format is ADME, organism-based. As to conditions: in vivo.
Data set [10] has as its system B16-F10. Put plainly: Antitumor activity against mouse B16-F10 cells implanted in BALB/c mouse assessed as reduction in tumor growth inhibition at 50 mg/kg, ip administered once daily for 14 days relative to control. As to conditions: B16-F10, 336 h, time 14 day, read-out: TGI. The format is functional.
The nature of data set [11]: Tmax in Sprague-Dawley rat at 1 mg/kg, iv administered as single dose and measured after 48 hrs by HPLC-MS/MS analysis. As to conditions: in vivo. The format is ADME, organism-based.
A short description of data set [12]: Initial drug concentration in Sprague-Dawley rat at 1 mg/kg, iv administered as single dose and measured after 48 hrs by HPLC-MS/MS analysis. The format is ADME, organism-based. As to conditions: in vivo.
A short description of data set [13]: Apparent volume of distribution in Sprague-Dawley rat at 1 mg/kg, iv administered as single dose and measured after 48 hrs by HPLC-MS/MS analysis. It counts as ADME, organism-based. As to conditions: in vivo, read-out: Vz.
Data set [14] deals with HepG2. Briefly: Antitumor immunity activity against human HepG2 cells expressing human PD-L1 co-cultured with human Jurkat T cells expressing human PD-1 assessed as reduction in cell viability at 10 uM incubated for 48 hrs by CCK8 assay relative to control. The format is functional.
The nature of data set [15]: Toxicity in allogenic BALB/c mouse implanted with mouse B16-F10 cells assessed as inflammatory cell infiltration in colon at 50 mg/kg, ip by H&E staining based analysis. It counts as organism-based. As to conditions: in vivo.
The nature of data set [16]: Clearance in Sprague-Dawley rat at 1 mg/kg, iv administered as single dose and measured after 48 hrs by HPLC-MS/MS analysis. It counts as ADME, organism-based. As to conditions: in vivo.
Data set [17] is described as follows: Toxicity in allogenic BALB/c mouse implanted with mouse B16-F10 cells assessed as severe crypt necrosis in colon at 50 mg/kg, ip by H&E staining based analysis. The format is organism-based. As to conditions: in vivo.
The nature of data set [18]: AUC (0 to infinity) in Sprague-Dawley rat at 1 mg/kg, iv administered as single dose and measured after 48 hrs by HPLC-MS/MS analysis. As to conditions: in vivo. Details: dose 1 mg/kg, time 48 hrs, route iv. It counts as ADME, organism-based.
Data set [19] has as its target Programmed cell death 1 ligand 1 (Homo sapiens, UniProt Q9NZQ7). Briefly: Binding affinity to human PD-L1 at 20 uM by SPR analysis.
Data set [20] concerns the target T1, Programmed cell death protein 1/Programmed cell death 1 ligand 1 (Homo sapiens). Put plainly: Inhibition of GST-tagged PD-1 (unknown origin)/His-tagged PD-L1 (unknown origin) interaction at 10 uM by HTRF binding assay. The format is protein-complex assay.
The target in data set [21] is Programmed cell death 1 ligand 1 (Mus musculus) (UniProt Q9EP73). Put plainly: Binding affinity to mouse PD-L1 at 20 uM by SPR analysis.
Programmed cell death 1 ligand 1 (Mus musculus), sequence (Q9EP73 whole entry): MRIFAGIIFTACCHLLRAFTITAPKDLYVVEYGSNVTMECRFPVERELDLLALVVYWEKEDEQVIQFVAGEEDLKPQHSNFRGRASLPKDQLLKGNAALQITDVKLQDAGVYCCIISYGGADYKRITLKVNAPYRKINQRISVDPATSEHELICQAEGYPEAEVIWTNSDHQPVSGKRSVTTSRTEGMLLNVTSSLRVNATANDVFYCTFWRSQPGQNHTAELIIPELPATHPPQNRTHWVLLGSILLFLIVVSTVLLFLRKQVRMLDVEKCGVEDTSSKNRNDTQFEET

Programmed cell death 1 ligand 1, sequence (Q9NZQ7 whole entry): as the sequence (Q9NZQ7 whole entry) above

As to `Cc1c(COc2cc(OCc3cccc(C#N)c3)c(CNC(C)(C)C(=O)N3CCC(NC(=O)CCCC[C@@H]4SC[C@@H]5NC(=O)N[C@@H]54)CC3)cc2Cl)cccc1-c1ccccc1`, the inhibition (usually the change of the read-out against control, counted positive when it falls) in [1] was 64.1%; in data set [2], 6.8%.

As for `Cc1c(COc2cc(OCc3cccc(C#N)c3)c(CN3CCCCC3C(=O)N3CCN(C(=O)CCCC[C@@H]4SC[C@@H]5NC(=O)N[C@@H]54)CC3)cc2Cl)cccc1-c1ccccc1` (stereo partly specified), the IC50 – broadly, the concentration that gives 50% inhibition – in data set [3] is 3.4 nM. Further, the inhibition is 102% in [1] and 93.1% in [2].

Consider `Cc1c(COc2cc(OCc3cccc(C#N)c3)c(CNC(C)(C)C(=O)NC3CCN(C(=O)CCCC[C@H]4SC[C@H]5NC(=O)N[C@H]54)CC3)cc2Cl)cccc1-c1ccc2c(c1)OCCO2`, for which the inhibition in [1] came to 50.1%; in data set [2], 3.7%.

`Cc1c(COc2cc(OCc3cccc(C#N)c3)c(CNC(C)(C)C(=O)NC3CCN(C(=O)CCCC[C@H]4SC[C@H]5NC(=O)N[C@H]54)CC3)cc2Cl)cccc1-c1ccccc1`: the inhibition worked out at 74.6% in [1] and 5.9% in data set [2].

In the case of `Cc1c(COc2cc(OCc3cccc(C#N)c3)c(CN3CCCCC3C(=O)NCCNC(=O)CCCC[C@H]3SC[C@H]4NC(=O)N[C@H]43)cc2Cl)cccc1-c1ccc2c(c1)OCCO2` (stereo partly specified), the values for the inhibition in data set [1] and in data set [2] were 88.5% and 26.8%, respectively.

`Cc1c(COc2cc(OCc3cccc(C#N)c3)c(CNC(C)(C)C(=O)N3CCN(C(=O)CCCC[C@H]4SC[C@H]5NC(=O)N[C@H]54)CC3)cc2Cl)cccc1-c1ccc2c(c1)OCCO2`: the inhibition in data set [1] turned out to be 59.3%; in [2], 9.1%.

Take `Cc1c(COc2cc(OCc3cccc(C#N)c3)c(CN3CCCCC3C(=O)N(C)CCNC(=O)CCCC[C@@H]3SC[C@@H]4NC(=O)N[C@@H]43)cc2Cl)cccc1-c1ccccc1` (stereo partly specified): the IC50 in [3] was determined as 10.8 nM. Besides, the inhibition amounted to 104% in data set [1] and 34.9% in data set [2].

`Cc1c(COc2cc(OCc3cccc(C#N)c3)c(CNC(C)(C)C(=O)NCCNC(=O)CCCC[C@@H]3SC[C@@H]4NC(=O)N[C@@H]43)cc2Cl)cccc1-c1ccccc1`: the inhibition was 79.2% in data set [1] and 21.3% in data set [2].

`Cc1c(COc2cc(OCc3cccc(C#N)c3)c(CN3CCCCC3C(=O)NC3CCN(C(=O)CCCC[C@@H]4SC[C@@H]5NC(=O)N[C@@H]54)CC3)cc2Cl)cccc1-c1ccccc1` (stereo partly specified) gave an IC50 in data set [3] of 11.6 nM. Besides, the inhibition in data set [1] was found to be 99.2%; in [2], 29.1%.

In data set [4], `Cc1c(COc2cc(OCc3cccc(C#N)c3)c(CN3CCCCC3C(=O)NCCN)cc2Cl)cccc1-c1ccccc1` (stereo unspecified) gave an AUCt of 1800 ng·h/mL. Also, the EC50 (in general, the midpoint of the concentration-response curve) in data set [5] came out at 4650 nM. Besides, in data set [6], the MRT last (usually a mean duration of stay, worked out from the concentration-time curve) at 48 h is 1.8 h. Moreover, the MRT inf (as a rule, the average time that molecules of a dose stay in the body) in data set [7] was found to be 2.3 h. Moreover, the Activity in data set [8] was 8.45%; in [14] it was 31%; in data set [15], “Toxic”; in data set [17] it was “Toxic”. For the same compound, the half-life (as a rule, the time in which the quantity being followed falls by half) in [9] was 6.4 h. In addition, in data set [10], the inhibition in vivo at 50 mg/kg amounted to 44.3%. Besides, the Tmax – broadly, the time from dosing to the highest level – in data set [11] was determined as 4.98 min. In data set [12], this compound yielded a C0 at 48 h of 2630 ng/mL. For the same compound, in data set [13], the Vd was 5.3 L/kg. Besides, the clearance (as a rule, a measure of how efficiently the substance is removed, as volume per time) in data set [16] was 8.33 mL/min/kg. The AUC (as a rule, concentration integrated over time) in data set [18] came out at 1830 ng·h/mL.

Turning to `Cc1c(COc2cc(OCc3cccc(C#N)c3)c(CNC(C)(C)C(=O)NCCNC(=O)CCCC[C@H]3SC[C@H]4NC(=O)N[C@H]43)cc2Cl)cccc1-c1ccc2c(c1)OCCO2`, the inhibition in [1] was 66.9%; in [2], -4%.

Turning to `Cc1c(COc2cc(OCc3cccc(C#N)c3)c(CN3CCCCC3C(=O)N(C)CCNC(=O)CCCC[C@@H]3SC[C@@H]4NC(=O)N[C@@H]43)cc2Cl)cccc1-c1ccc2c(c1)OCCO2` (stereo partly specified), the inhibition in data set [1] was 82.6%; in data set [2] it was 20.1%.

`Cc1c(COc2cc(OCc3cccc(C#N)c3)c(CNC(C)(C)C(=O)N3CCC(NC(=O)CCCC[C@H]4SC[C@H]5NC(=O)N[C@H]54)CC3)cc2Cl)cccc1-c1ccc2c(c1)OCCO2`: the inhibition in data set [1] is 42.6%; in [2], -7.5%.

`Cc1c(COc2cc(OCc3cccc(C#N)c3)c(CN3CCCCC3C(=O)NCCCNC(=O)CCCC[C@@H]3SC[C@@H]4NC(=O)N[C@@H]43)cc2Cl)cccc1-c1ccccc1` (stereo partly specified) gave an IC50 in [3] of 5.6 nM. For the same compound, the inhibition was determined as 104% in data set [1] and 85.2% in data set [2].

Regarding `Cc1c(COc2cc(OCc3cccc(C#N)c3)c(CN3CCCCC3C(=O)N3CCC(NC(=O)CCCC[C@H]4SC[C@H]5NC(=O)N[C@H]54)CC3)cc2Cl)cccc1-c1ccc2c(c1)OCCO2` (stereo partly specified), the results for the inhibition in data set [1] and in data set [2] were 90.6% and 13.4%, respectively.

As for `Cc1c(COc2cc(OCc3cccc(C#N)c3)c(CN3CCCCC3C(=O)N3CCN(C(=O)CCCC[C@@H]4SC[C@@H]5NC(=O)N[C@@H]54)CC3)cc2Cl)cccc1-c1ccc2c(c1)OCCO2` (stereo partly specified), the results for the inhibition in data set [1] and in [2] were 80.9% and 17.3%, respectively.

As for `Cc1c(COc2cc(OCc3cccc(C#N)c3)c(CNC(C)(C)C(=O)N3CCN(C(=O)CCCC[C@@H]4SC[C@@H]5NC(=O)N[C@@H]54)CC3)cc2Cl)cccc1-c1ccccc1`, the inhibition was found to be 68.1% in data set [1] and 11.2% in [2].

In the case of `Cc1c(COc2cc(OCc3cccc(C#N)c3)c(CNC(C)(C)C(=O)NCCCNC(=O)CCCC[C@@H]3SC[C@@H]4NC(=O)N[C@@H]43)cc2Cl)cccc1-c1ccccc1`, the values for the inhibition in data set [1] and in [2] were 81.5% and 10.4%, respectively.

In data set [3], `Cc1c(COc2cc(OCc3cccc(C#N)c3)c(CN3CCCCC3C(=O)N3CCC(NC(=O)CCCC[C@@H]4SC[C@@H]5NC(=O)N[C@@H]54)CC3)cc2Cl)cccc1-c1ccccc1` (stereo partly specified) returned an IC50 of 4 nM. Besides, the results for the inhibition in [1] and in data set [2] were 97.2% and 100%, respectively.

For the compound `Cc1c(COc2cc(OCc3cccc(C#N)c3)c(CN3CCCCC3C(=O)NC3CCN(C(=O)CCCC[C@H]4SC[C@H]5NC(=O)N[C@H]54)CC3)cc2Cl)cccc1-c1ccc2c(c1)OCCO2` (stereo partly specified), the values for the inhibition in data set [1] and in data set [2] were 84.7% and 11.2%, respectively.

Turning to `O=C(O)CCCC[C@@H]1SC[C@@H]2NC(=O)N[C@@H]21`, the outcome in data set [19] and in data set [21] was inactive. In addition, in data set [20], the inhibition entry is “inactive”.
